According to the NIST ThermoML archive (doi:10.1016/j.fluid.2011.02.008):
Where “and” joins values, the source holds several entries; their conditions need not be identical. Equal values may be shown once. Numbers after ± are expanded uncertainties.

Conditions: Liquid, Closed cell (Static) method

O=S=O [sulfur dioxide]
vapor or sublimation pressure (343.15 K): 1479 ± 5 kPa and 1469 ± 24 kPa | vapor or sublimation pressure (373.15 K): 2883 ± 9 kPa | vapor or sublimation pressure (413.15 K): 5836 ± 18 kPa and 5978 ± 32 kPa
